Results as given in patent US9999614B2, “Combination for the prophylaxis and treatment of behavioural, mental, and cognitive disorders” (LTD “VALENTA-INTELLEKT”, priority 2012, dated 2018).

Tested on: amnesia caused by acute normobaric hypoxic hypoxia with hypercapnia
Assay: Open-field method after acute normobaric hypoxic hypoxia with hypercapnia
Format: in vivo, mice
Details: i.p. once a day for 5 days, Melatonin 5 mg, Memantin 10 mg mono-use
Method: For this, the active substances Melatonin 3 mg/Memantin 10 mg, Melatonin 5 mg/Memantin 20 mg, Melatonin 10 mg/Memantin 20 mg were taken, and doses recommended for human beings were converted into doses adapted for mice according to the formula “(active substance/70(average weight of a human being))×7”. Then the compositions were dissolved in 5 mL of the solution and, according to the given formula, introduced to animals intraperitoneally once a day for 5 days.
The antiamnestic action of the compositions was also carried out on an model of amnesia caused by acute normobaric hypoxic hypoxia with hypercapnia in a so-called hermetic chamber on white non-linear male mice having a weight of 20-24 Γ with the CPAR development in the animals according to the open-field method. After CPAR teaching the animals were put in the hermetic chamber for 16-18 minutes, depending on manifestation of hypoxia symptoms and weight. This model was reproduced by placing mice, one by one, in glass jars of equal volume that were hermetically sealed. With consumption of oxygen its concentration in the jar air and in the organism lowered and the quantity of carbon dioxide, on the contrary, raised. As the result, acute hypoxic hypoxia with hypercapnia developed in the animals. The animals of the control group were subjected to false hypoxia, that is, the mice were put in glass jars of equal volume that were not closed. The substances under study and the sodium chloride isotonic solution (control) were used in comparison with Melatonin 5 mg (mono-use) and Memantin 10 mg (mono-use) in accordance with the above formula for adapting to animal models by intraperitoneal introduction, before teaching the mice, once a day for 5 days.

## COc1ccc2[nH]cc(CCNC(C)=O)c2c1 [Melatonin, N-acetyl-5-methoxytriptamine]
1st day after operation
  Horizontal motion activity: 6.9 ± 2.3
  Inspection of holes: 1.7 ± 0.6
  Vertical motion activity: 3.2 ± 1.2
3rd day after operation
  Horizontal motion activity: 8.2 ± 1.4
  Inspection of holes: 1.9 ± 0.8
  Vertical motion activity: 3.5 ± 0.9
7th day after operation
  Horizontal motion activity: 8.3 ± 2.8
  Inspection of holes: 2.4 ± 0.5
  Vertical motion activity: 3.2 ± 1.3
10th day after operation
  Horizontal motion activity: 8.1 ± 1.7
  Inspection of holes: 2.6 ± 2.9
  Vertical motion activity: 3.6 ± 2.3

## CC12CC3CC(C)(C1)CC(N)(C3)C2 [Memantin]
1st day after operation
  Horizontal motion activity: 7.1 ± 2.7
  Inspection of holes: 2.1 ± 1.1
  Vertical motion activity: 3.7 ± 1.9
3rd day after operation
  Horizontal motion activity: 8.9 ± 4.9
  Inspection of holes: 2.5 ± 1.1
  Vertical motion activity: 3.3 ± 1.2
7th day after operation
  Horizontal motion activity: 9.6 ± 3.4
  Inspection of holes: 3.0 ± 2.7
  Vertical motion activity: 3.7 ± 1.8
10th day after operation
  Horizontal motion activity: 11.3 ± 1.7
  Inspection of holes: 3.2 ± 1.3
  Vertical motion activity: 4.1 ± 2.5
